Measured values reported in patent publication US11993640B2, “Treating inflammatory lung disease” (United States Government as represented by the Department …, priority 2019, dated 2024).
Non-standard residues stand in square brackets, D forms with d. Residues, ends and D or L forms follow the SMILES beside them. *: point of attachment. Phenylacetyl(2,3,4,5,6-F5) = O=C(Cc1c(F)c(F)c(F)c(F)c1F)*; Phe(F5) = N[C@@H](Cc1c(F)c(F)c(F)c(F)c1F)C(=O)O; hArg = N=C(N)NCCCC[C@H](N)C(=O)O; 12Ado = NCCCCCCCCCCCC(=O)O; Nle = CCCC[C@H](N)C(=O)O; Orn = NCCC[C@H](N)C(=O)O; Abu = CC[C@H](N)C(=O)O; PhAc = O=C(Cc1ccccc1)*

What was measured:
[1] = test system: KATOIII cells; assay: In vitro cell viability, stomach cancer KATOIII; assay type: cell-based, human; conditions: 5 μM, 72 h; relative to MIA602 = 1; Table 3A
How it was run: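 Cells grown to ~60% confluence, starved 24 h in 0.5% FBS medium, then exposed to antagonists at 1, 2.5 or 5 μM or 0.1% DMSO vehicle for 72 h, in quintuplicate with medium renewed every 48 h. Viability by CellTiter 96 AQueous One; reported as inhibitory potency relative to MIA602.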

[2] = test system: NCI-N87 xenograft; assay: Xenograft tumor growth in nude mice, stomach cancer N87; assay type: in vivo; conditions: Panel D, 10 weeks
Protocol: The peptides' activity was compared with GHRH antagonist MIA-602. All statistical analyzses were performed from comparing GHRA antagonists to non-treated tumor (control).
Peptides and chemicals. GHRH antagonists MIA-602 and AVR-GHRH antagonists (see Table 2 above) were synthesized by solid phase methods and purified by HPLC. The peptides were dissolved in DMSO and further diluted in 10% 1, 2-propanediol. The final concentration of peptides was 50 µg/ml in 10% 1, 2-propanediol containing 0.1% of DMSO.
Cell culture. Human cancer cell lines including pancreatic (PANC-1 and CFPAC-1), lung (HCC827 and H460), stomach (NCI-N87), prostate (PC3), brest (MX-1 and HCC-1806), colorectal (HT-29), and ovarian (SK-OV-3 and OVCAR-3) were obtained from the American Type Culture Collection (ATCC) and cultured at 37° C. in a humidified 95% air/5% CO2 atmosphere in the medium recommended by ATCC.
Xenograft models of human cancers in nude mice. Female athymic (NCr nu/nu) nude mice, 5-to 6-weeks-old, obtained from the Envigo labs (Tampa, FL), were housed in laminar airflow cabinets under pathogen-free conditions with a 12-h light/12-h dark schedule, and were fed autoclaved standard chow and water. To generate mice with xenografted tumors, tumor xenografts were initiated by subcutaneous (s.c.) injection of […] human cancer cells into female nude mice. After about 4 weeks the resulting tumors were dissected and collected after removing necrosis tissues. The tumors were then cut into particles with size of ˜3 mm3 and transplanted s.c. by trocar needle into experimental animals. When tumors grew to the size of 50-60 mm3 (by volume), […] of 5 μg of GHRH antagonists MIA-602 or AVR-compounds (2-10 μg as indicated), or vehicle solutions (0.1% DMSO in 10% 1, 2-propanediol) respectively. Tumor sizes were measured weekly.
Statistical analysis. One-way ANOVA followed by Bonferroni comparison were performed. Data are expressed as Mean±SEM. To determine statistical significance between animal groups, two-tailed Student's t-test was conducted. Differences were considered significant when p<0.05.
Results. […] FIG. 1A-N represents in vivo inhibition of tumor growth during the treatment with GHRH antagonist MIA-602 and selected AVR antagonists in nude mice xenografted with various human tumors including pancreatic cancer PANC-1 (FIG. 1A) and CFPAC-1 (FIG. 1I); lung cancer HCC827 (FIGS. 1B, C) and H460 (FIG. 1H); stomach cancer N87 (FIGS. 1D-F); colon cancer HT-29 (FIG. 1G); breast cancer MX-1 and HCC-1806 (FIGS. 1J, K); ovarian cancer SK-OV-3 and OVACAR-3 (FIGS. 1L, M) and prostate cancer PC3 (FIG. 1N). See also Table 5.

## CCCC[C@H](NC(=O)[C@@H](NC(=O)[C@H](CC(=O)O)NC(=O)[C@H](CCC(N)=O)NC(=O)[C@H](CC(C)C)NC(=O)[C@H](CC(C)C)NC(=O)[C@H](CCCN)NC(=O)[C@H](Cc1c[nH]cn1)NC(=O)[C@H](C)NC(=O)[C@H](CO)NC(=O)[C@H](CC(C)C)NC(=O)[C@H](CCC(N)=O)NC(=O)[C@H](CC)NC(=O)[C@H](CC(C)C)NC(=O)[C@@H](NC(=O)[C@H](CCCN)NC(=O)[C@H](Cc1c[nH]cn1)NC(=O)[C@H](Cc1ccc(OC)cc1)NC(=O)[C@H](CCCCNC(=N)N)NC(=O)[C@H](C)NC(=O)[C@@H](NC(=O)[C@H](Cc1c(F)c(F)c(F)c(F)c1F)NC(=O)[C@@H](NC(=O)[C@H](C)NC(=O)[C@H](CC(=O)O)NC(=O)[C@@H](CCCNC(=N)N)NC(=O)[C@H](Cc1ccc(O)cc1)NC(=O)CCCCCCCCCCCNC(=O)Cc1ccccc1)[C@@H](C)CC)[C@@H](C)O)C(C)C)[C@@H](C)CC)C(=O)N[C@H](CCCNC(=N)N)C(=O)N[C@@H](CCCCNC(=N)N)C(N)=O [MIA-602, PhAC-Ada, Tyr D-Arg, Asp, Ala, Ile, 5FPhe, Thr, Ala, Har, Tyr(Me), His, Orn, Val, Leu, Abu, Gin, Leu, Ser, Ala, His, Orn, Leu, Leu, Gin, Asp, Ile, Nle, D-Arg, Har NH2, reference compound] ({PhAc-12Ado}-Y[dR]DAI[Phe(F5)]TA[hArg]Y(Me)H[Orn]VL[Abu]QLSAH[Orn]LLQDI[Nle][dR][hArg]-NH2)
[1]
  Relative inhibitory potency, Stomach KATOIII: 1
[2]; 2 μg/day s.c.
  Tumor Growth %: 1065.00%
[2]; 2 μg/day s.c., vs control
  % Inhibition: 13.0%
[2]; 5 μg/day s.c.
  Tumor Growth %: 767.00%

## CCCC[C@H](NC(=O)[C@@H](NC(=O)[C@H](CC(=O)O)NC(=O)[C@H](CCC(N)=O)NC(=O)[C@H](CC(C)C)NC(=O)[C@H](CC(C)C)NC(=O)[C@H](CCCCN)NC(=O)[C@H](CCCNC(=N)N)NC(=O)[C@H](C)NC(=O)[C@H](CO)NC(=O)[C@H](CC(C)C)NC(=O)[C@H](CCC(N)=O)NC(=O)[C@H](CC)NC(=O)[C@H](CC(C)C)NC(=O)[C@@H](NC(=O)[C@H](CCCCN)NC(=O)[C@H](CCCNC(=N)N)NC(=O)[C@H](Cc1ccc(OC)cc1)NC(=O)[C@H](CCCCNC(=N)N)NC(=O)[C@H](C)NC(=O)[C@@H](NC(=O)[C@H](Cc1c(F)c(F)c(F)c(F)c1F)NC(=O)[C@@H](NC(=O)[C@H](C)NC(=O)[C@H](CC(=O)O)NC(=O)[C@@H](CCCNC(=N)N)NC(=O)[C@H](Cc1ccc(O)cc1)NC(=O)CCCCCCCCCCCNC(=O)Cc1c(F)c(F)c(F)c(F)c1F)[C@@H](C)CC)[C@@H](C)O)C(C)C)[C@@H](C)CC)C(=O)N[C@H](CCCNC(=N)N)C(=O)N[C@@H](CCCCNC(=N)N)C(=O)NC [AVR-235] ({Phenylacetyl(2,3,4,5,6-F5)-12Ado}-Y[dR]DAI[Phe(F5)]TA[hArg]Y(Me)RKVL[Abu]QLSARKLLQDI[Nle][dR][hArg]-NHMe)
[1]
  Relative inhibitory potency, Stomach KATOIII: 1.220
[2]; 2 μg/day s.c.
  Tumor Growth %: 558.60%
